Data as given in patent US20100047227A1, “NOVEL ANTICANCER CATHEPSIN FORMULATIONS AND ANTICANCER AGENT FOR USE IN COMBINED ANTICANCER THERAPY” (priority 2006, published 2010).
Square brackets hold non-standard residues; d marks the D form. Peptide text beside a SMILES is read from it. * marks the point of attachment. Sta = CC(C)C[C@H](N)[C@@H](O)CC(=O)O; Isovaleryl = CC(C)CC(=O)*; Cbz = O=C(OCc1ccccc1)*; CH2F = FC*

Tests used:
Type in all cases: cell-based
[1] = tested on: human leukemia U937 cells; assay: survival of human leukemia U937 cells; conditions: sole administration, 10 μg/ml
[2] = tested on: human prostate cancer ALVA-41 cells; assay: survival rate of cells (Cell Counting Kit-8), ALVA-41 cells; conditions: for number of living cells: ALVA-41 cells, 20 hours
Description: The survival rate of cells was measured by Cell Counting Kit-8 in accordance with a manufacturer's manual. The method will be described briefly as follows. A 96-well (each 100 μl) plate was inoculated with cells (1×10^4 cells) and incubated for 24 hours, and the cells were incubated in a non-serum culture medium Opti-MEM together with a given concentration of each cathepsin purified from rat stomach (References #27 and #60-#62). Thereafter, the kit reagent (10 μl) was added to each well and the wells were incubated for another 1 hour. After incubation, each well was measured at the absorbance of 450 nm with a microplate reader.
(§1) In the figure, an indicating bar scale represents 50 μm. […] In the figure, an indicating bar scale represents 50 μm.
In this experiment, the survival rate of the ALVA-41 cells was measured by incubating the cells with cathepsin E of a given concentration in the presence or absence of pepstatin A (100 μM) at 37° C. and pH 7.4 for 20 hours. The data is represented as a percentage with respect to the value for non-treated cell group. The data were obtained as an average value±SD from the data obtained by four separate experiments. […] In this experiment, the HEK293 cells were incubated together with a given concentration of natural cathepsin E, wild-type recombinant and the active site mutant (D98A/D283A) at 37° C. and pH 7.4 for 20 hours. The survival rate of the cells was measured and represented as a percentage with respect to the value of the non-treated cell group. The data represents an average value±SD from the data obtained by four separate experiments. In the value, *p<0.001 is a corresponding value for the cells treated with the mutant. […] In this experiment, ALVA-41 cells were treated solely with cathepsin E of a given concentration in the same manner as for FIG. 2A and the culture supernatant was recovered, followed by centrifuging to remove the precipitate and transferring a portion ([…]) of the supernatant to a freshly prepared culture of ALVA-41 cells. Thereafter, the cells were incubated at 37° C. and pH 7.4 for 20 hours in the absence (black round mark) or presence (white round mark) of pepstatin A (100 μM) and measured for the survival rate of the cells. The cell survival rate is represented as a percentage with respect to the value of the cells treated with the culture supernatant of the ALVA-41 cells treated with physiological saline. The data is represented as an average value±SD from the data obtained by four separate experiments. […] The cathepsin E activity (on the upper panel) and the cytotoxic activity (on the lower panel) of each column fraction were determined using freshly prepared ALVA-41 cells and a cathepsin E-specific substrate. The cell survival rate of each fraction treated with the protein at a given final concentration is represented as a percentage with respect to the value of the cells treated with physiological saline and as an average value±SD from the data obtained by four separate experiments. The cathepsin E activity is represented as a percentage of the total activity in the culture supernatant, and the data is represented as an average±SD from the data obtained by three separate experiments.

[3] = tested on: human prostate cancer ALVA-41 cells; assay: measurement for apoptosis (morphology, annexin V staining, TUNEL assay), ALVA-41 cells; conditions: for effect of caspase inhibitor on cell death of cancer cells caused by cathepsin E: ALVA-41 cells treated with cathepsin E
Description: The cells were measured for a morphological variation of apoptosis by phase contrast microscopy. The cells of prophase and post-phase apoptosis were detected by annexin V staining and TUNEL assay. In order to carry out the annexin V staining of ALVA-41 cells, the cells were exposed to cathepsin E or cathepsin L for 4 hours and centrifuged. After centrifugation, the separated cells were washed twice with PBS and incubated with fluorescein isothiocyanate-conjugated annexin V for 10 minutes at room temperature in a dark place. The cells that were positive as a result of the annexin V staining were then detected with fluorescence microscope. The TUNEL assay was carried out for the incubated tumor cells using Apop Tag Peroxidase Apoptosis Detection Kit and for heterografts using Tumor TACS In Situ Apoptosis Detection Kit.
as §1

**Q.** With `COc1cc([C@@H]2c3cc4c(cc3[C@@H](O[C@@H]3O[C@@H]5CO[C@@H](C)O[C@H]5[C@H](O)[C@H]3O)[C@H]3COC(=O)[C@H]23)OCO4)cc(OC)c1O` [etoposide] as the compound, how does the “rate of apoptosis of U937 cells” value [1] read?
**A.** Its value is “approximately 40%”.

**Q.** How did the “effect on cytotoxicity of cathepsin E against cancer cells” value ([2]; added to culture medium of ALVA-41 cells, pepstatin A 100 μM) turn out when `CC(C)CC(=O)N[C@H](C(=O)N[C@H](C(=O)N[C@@H](CC(C)C)[C@@H](O)CC(=O)N[C@@H](C)C(=O)N[C@@H](CC(C)C)[C@@H](O)CC(=O)O)C(C)C)C(C)C` [pepstatin A, reference compound] (Isovaleryl-VV[Sta]A[Sta]-OH) was run?
**A.** The value was “suppressed”.

**Q.** How did the “effect of caspase inhibitor on cell death of cancer cells caused by cathepsin E” value [3] turn out when `COC(=O)C[C@H](NC(=O)[C@H](C)NC(=O)[C@@H](NC(=O)OCc1ccccc1)C(C)C)C(=O)CF` [z-VAD-fmlk, reference compound] (Cbz-Val-Ala-Asp(OMe)-CH2F) was run?
**A.** The value was “suppression”.

**Q.** How did the “effect of caspase inhibitor on cell death of cancer cells caused by cathepsin E” value [3] turn out when DEVD-fmlk [reference compound] was run?
**A.** The value was “suppression”.

**Q.** cathepsin B was tested. Which “number of living cells” value ([2]; neutral pH, 10-100 μg/ml) did it give?
**A.** The value was “increased the number of living cells in a concentration-dependent way”.

**Q.** With cathepsin D as the compound, how does the “number of living cells” value ([2]; neutral pH, 10-100 μg/ml) read?
**A.** The value was “increased the number of living cells in a concentration-dependent way”.

**Q.** Which results are given for cathepsin L?
**A.** staining with annexin V and TUNEL reagent ([3]; ALVA-41 cells, 100 μg/ml): negative; morphological changes of treated cells ([3]; ALVA-41 cells, microscopy, 100 μg/ml): necrosis-like morphological changes; number of living cells ([2]; high concentration range (50-100 μg/ml)): decreases the number of the living cells; number of living cells ([2]; low concentration (10 μg/ml)): increase in the number of these living cells
